Measured values published in ChEMBL document CHEMBL1909046, “DrugMatrix in vitro pharmacology data”.

Key:
Thromboxane-A synthase = biological target: T1, Thromboxane-A synthase (Homo sapiens, UniProt P24557); experiment: biochemical; format: tissue-based, Platelet; conditions: platelet;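 further: enzyme inhibition assay with PGH2 supplied as substrate; in other assays of this panel Not Active means under 50% inhibition at 10 µM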
T1 sequence (P24557 whole entry): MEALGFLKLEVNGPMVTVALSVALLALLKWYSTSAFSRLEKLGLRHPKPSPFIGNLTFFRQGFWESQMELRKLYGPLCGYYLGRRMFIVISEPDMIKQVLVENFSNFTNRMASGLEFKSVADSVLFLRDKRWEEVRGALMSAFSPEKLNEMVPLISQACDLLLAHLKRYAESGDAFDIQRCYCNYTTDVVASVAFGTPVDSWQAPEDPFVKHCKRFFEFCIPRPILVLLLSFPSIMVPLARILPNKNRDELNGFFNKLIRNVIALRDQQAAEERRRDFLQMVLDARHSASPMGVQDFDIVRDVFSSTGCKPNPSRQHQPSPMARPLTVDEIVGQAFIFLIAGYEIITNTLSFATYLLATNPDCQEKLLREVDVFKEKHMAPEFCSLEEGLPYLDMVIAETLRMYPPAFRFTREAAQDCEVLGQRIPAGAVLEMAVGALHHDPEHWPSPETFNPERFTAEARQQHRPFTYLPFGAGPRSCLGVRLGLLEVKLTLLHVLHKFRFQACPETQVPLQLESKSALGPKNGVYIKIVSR

Cannabinoid receptor 1 = Cannabinoid receptor 1 (Homo sapiens, UniProt P21554); format: cell membranes, Membrane; conditions: chem-1; further: in other assays of this panel Not Active means under 50% inhibition at 10 µM
Caspase-1 = biological target: T2, Caspase-1 (Homo sapiens, UniProt P29466); set-up: species or system Escherichia coli;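 further: Caspase-1 enzyme inhibition assay with a peptide substrate; in other assays of this panel Not Active means under 50% inhibition at 10 µM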
T2 sequence (P29466 whole entry): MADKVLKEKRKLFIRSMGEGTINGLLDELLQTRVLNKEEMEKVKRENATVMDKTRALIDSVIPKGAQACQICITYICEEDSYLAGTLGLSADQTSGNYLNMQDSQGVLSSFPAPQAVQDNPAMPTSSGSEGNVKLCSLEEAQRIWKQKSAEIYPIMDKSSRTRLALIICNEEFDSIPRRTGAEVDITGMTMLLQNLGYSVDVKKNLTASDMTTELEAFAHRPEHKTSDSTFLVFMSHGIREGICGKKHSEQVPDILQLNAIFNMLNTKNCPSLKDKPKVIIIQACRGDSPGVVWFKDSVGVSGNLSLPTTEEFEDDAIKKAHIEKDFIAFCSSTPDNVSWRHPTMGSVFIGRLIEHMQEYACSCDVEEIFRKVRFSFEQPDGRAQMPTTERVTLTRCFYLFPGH

Cytochrome P450 2E1 = Cytochrome P450 2E1 (Homo sapiens, UniProt P05181); conditions: bti-tn-5b1-4; further: in other assays of this panel Not Active means under 50% inhibition at 10 µM
Cytochrome P450 3A4 = Cytochrome P450 3A4 (Homo sapiens, UniProt P08684); conditions: bti-tn-5b1-4; further: in other assays of this panel Not Active means under 50% inhibition at 10 µM
[1] = biological target: T3, Muscarinic acetylcholine receptor M4 (Homo sapiens, UniProt P08173); format: cell membranes, CHO-K1, Membrane; conditions: cho-k1; further: in other assays of this panel Not Active means under 50% inhibition at 10 µM
T3 sequence (P08173 whole entry): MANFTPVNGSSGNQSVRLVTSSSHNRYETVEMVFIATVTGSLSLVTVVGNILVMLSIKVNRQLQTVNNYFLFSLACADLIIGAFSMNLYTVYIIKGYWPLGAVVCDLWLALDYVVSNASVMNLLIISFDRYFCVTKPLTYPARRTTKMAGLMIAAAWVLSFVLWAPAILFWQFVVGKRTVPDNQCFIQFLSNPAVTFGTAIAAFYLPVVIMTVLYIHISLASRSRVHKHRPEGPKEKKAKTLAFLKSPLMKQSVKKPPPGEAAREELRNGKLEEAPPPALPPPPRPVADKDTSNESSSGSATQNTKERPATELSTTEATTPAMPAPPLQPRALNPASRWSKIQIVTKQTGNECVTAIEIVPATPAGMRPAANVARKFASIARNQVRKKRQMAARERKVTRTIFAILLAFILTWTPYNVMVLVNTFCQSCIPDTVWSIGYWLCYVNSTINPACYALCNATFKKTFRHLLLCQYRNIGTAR

[2] = DRUGMATRIX: Atrial Natriuretic Factor (ANF) radioligand binding (ligand: [125I] ANF (rat)); format: cell membranes, Cavia porcellus, Dunkin-Hartley, Adrenal gland, Membrane; conditions: Not Active = under 50% inhibition at 10 µM
Calcitonin receptor = biological target: T4, Calcitonin receptor (Homo sapiens, UniProt P30988); format: cell membranes, Membrane; conditions: t47d; further: in other assays of this panel Not Active means under 50% inhibition at 10 µM
T4 sequence (P30988 whole entry): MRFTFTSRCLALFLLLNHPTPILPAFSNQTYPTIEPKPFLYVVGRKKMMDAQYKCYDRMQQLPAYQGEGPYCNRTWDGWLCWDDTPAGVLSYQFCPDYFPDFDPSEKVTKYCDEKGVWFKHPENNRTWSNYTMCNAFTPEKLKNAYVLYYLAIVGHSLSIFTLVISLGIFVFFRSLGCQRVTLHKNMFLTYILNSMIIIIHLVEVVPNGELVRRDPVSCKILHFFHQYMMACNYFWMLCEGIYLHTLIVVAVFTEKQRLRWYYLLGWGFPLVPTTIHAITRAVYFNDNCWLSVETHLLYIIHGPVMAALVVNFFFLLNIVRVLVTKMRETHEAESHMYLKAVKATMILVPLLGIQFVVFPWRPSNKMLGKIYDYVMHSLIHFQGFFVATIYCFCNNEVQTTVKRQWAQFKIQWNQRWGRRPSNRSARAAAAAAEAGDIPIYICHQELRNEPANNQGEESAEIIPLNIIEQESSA

Sequence of Cytochrome P450 3A4 (P08684 whole entry): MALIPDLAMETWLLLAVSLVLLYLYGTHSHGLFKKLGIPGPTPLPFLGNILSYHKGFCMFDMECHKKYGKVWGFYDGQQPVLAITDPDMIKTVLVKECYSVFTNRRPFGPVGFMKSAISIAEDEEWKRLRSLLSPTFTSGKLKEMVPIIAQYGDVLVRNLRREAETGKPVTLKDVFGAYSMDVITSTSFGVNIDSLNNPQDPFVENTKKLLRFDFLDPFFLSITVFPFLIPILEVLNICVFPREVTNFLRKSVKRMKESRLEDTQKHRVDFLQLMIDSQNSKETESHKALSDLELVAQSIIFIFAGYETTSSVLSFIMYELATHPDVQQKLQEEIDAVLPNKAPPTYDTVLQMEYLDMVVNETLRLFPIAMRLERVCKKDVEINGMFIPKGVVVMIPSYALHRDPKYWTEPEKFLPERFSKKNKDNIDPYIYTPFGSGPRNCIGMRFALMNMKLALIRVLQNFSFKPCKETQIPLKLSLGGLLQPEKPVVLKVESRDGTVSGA
Sequence of Cannabinoid receptor 1 (P21554 whole entry): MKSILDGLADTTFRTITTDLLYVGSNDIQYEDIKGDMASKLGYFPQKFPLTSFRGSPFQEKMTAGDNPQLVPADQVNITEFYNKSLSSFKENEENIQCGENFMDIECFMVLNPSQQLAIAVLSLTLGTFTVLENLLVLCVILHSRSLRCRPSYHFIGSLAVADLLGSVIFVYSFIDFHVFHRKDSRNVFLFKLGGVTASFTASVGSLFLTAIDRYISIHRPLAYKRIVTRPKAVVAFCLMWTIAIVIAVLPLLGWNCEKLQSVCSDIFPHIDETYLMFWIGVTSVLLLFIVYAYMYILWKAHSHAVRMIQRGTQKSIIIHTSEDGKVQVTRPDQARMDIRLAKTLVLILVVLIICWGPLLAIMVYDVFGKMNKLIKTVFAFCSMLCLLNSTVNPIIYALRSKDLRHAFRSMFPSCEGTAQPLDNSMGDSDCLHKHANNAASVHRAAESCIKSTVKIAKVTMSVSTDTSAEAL
Sequence of Cytochrome P450 2E1 (P05181 whole entry): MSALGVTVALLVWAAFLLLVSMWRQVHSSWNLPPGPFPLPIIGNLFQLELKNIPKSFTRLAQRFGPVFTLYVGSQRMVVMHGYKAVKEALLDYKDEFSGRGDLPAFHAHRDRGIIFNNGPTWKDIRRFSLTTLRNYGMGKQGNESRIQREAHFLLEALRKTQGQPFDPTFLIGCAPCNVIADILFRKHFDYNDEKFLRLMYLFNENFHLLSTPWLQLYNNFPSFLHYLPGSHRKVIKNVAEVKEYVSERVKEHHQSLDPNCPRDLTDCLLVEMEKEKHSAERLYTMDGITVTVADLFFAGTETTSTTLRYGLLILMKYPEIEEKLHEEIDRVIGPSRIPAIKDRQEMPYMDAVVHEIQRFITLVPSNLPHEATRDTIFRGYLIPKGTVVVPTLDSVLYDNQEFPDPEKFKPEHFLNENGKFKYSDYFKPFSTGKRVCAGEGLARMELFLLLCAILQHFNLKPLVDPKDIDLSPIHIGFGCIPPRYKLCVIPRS

CC(=O)[C@@]1(O)CC[C@H]2[C@@H]3C[C@H](C)C4=CC(=O)CC[C@]4(C)[C@H]3CC[C@@]21C
Not Active: IC50 (Thromboxane-A synthase) | IC50 (Cannabinoid receptor 1) | IC50 (Caspase-1) | IC50 (Cytochrome P450 2E1) | Ki (Cytochrome P450 2E1) | IC50 (Cytochrome P450 3A4) | Ki (Cytochrome P450 3A4) | IC50 [1] | IC50 [2] | Ki [2] | IC50 (Calcitonin receptor)

Cc1noc(NS(=O)(=O)c2ccc(N)cc2)c1C [SULFISOXAZOLE]
Not Active: IC50 (Thromboxane-A synthase) | IC50 (Cannabinoid receptor 1) | IC50 (Caspase-1) | IC50 (Cytochrome P450 2E1) | Ki (Cytochrome P450 2E1) | IC50 (Cytochrome P450 3A4) | Ki (Cytochrome P450 3A4) | IC50 [1] | IC50 [2] | Ki [2] | IC50 (Calcitonin receptor)

N[C@@H](Cc1ccc(O)c(O)c1)C(=O)O [LEVODOPA]
Not Active: IC50 (Thromboxane-A synthase) | IC50 (Cannabinoid receptor 1) | IC50 (Caspase-1) | IC50 (Cytochrome P450 2E1) | Ki (Cytochrome P450 2E1) | IC50 (Cytochrome P450 3A4) | Ki (Cytochrome P450 3A4) | IC50 [1] | IC50 [2] | Ki [2] | IC50 (Calcitonin receptor)

NS(=O)(=O)c1cc2c(cc1Cl)NC(C(Cl)Cl)NS2(=O)=O (stereo unspecified) [TRICHLORMETHIAZIDE]
Not Active: IC50 (Thromboxane-A synthase) | IC50 (Cannabinoid receptor 1) | IC50 (Caspase-1) | IC50 (Cytochrome P450 2E1) | Ki (Cytochrome P450 2E1) | IC50 (Cytochrome P450 3A4) | Ki (Cytochrome P450 3A4) | IC50 [1] | IC50 [2] | Ki [2] | IC50 (Calcitonin receptor)

Nc1c2c(nc3ccccc13)CCCC2 [TACRINE]
Not Active: IC50 (Thromboxane-A synthase) | IC50 (Cannabinoid receptor 1) | IC50 (Caspase-1) | IC50 (Cytochrome P450 2E1) | Ki (Cytochrome P450 2E1) | IC50 (Cytochrome P450 3A4) | Ki (Cytochrome P450 3A4) | IC50 [1] | IC50 [2] | Ki [2] | IC50 (Calcitonin receptor)

NC[C@H]1CC[C@H](C(=O)O)CC1 [TRANEXAMIC ACID]
Not Active: IC50 (Thromboxane-A synthase) | IC50 (Cannabinoid receptor 1) | IC50 (Caspase-1) | IC50 (Cytochrome P450 2E1) | Ki (Cytochrome P450 2E1) | IC50 (Cytochrome P450 3A4) | Ki (Cytochrome P450 3A4) | IC50 [1] | IC50 [2] | Ki [2] | IC50 (Calcitonin receptor)

c1ccc([C@H]2CN3CCSC3=N2)cc1 [LEVAMISOLE]
Not Active: IC50 (Thromboxane-A synthase) | IC50 (Cannabinoid receptor 1) | IC50 (Caspase-1) | IC50 (Cytochrome P450 2E1) | Ki (Cytochrome P450 2E1) | IC50 (Cytochrome P450 3A4) | Ki (Cytochrome P450 3A4) | IC50 [1] | IC50 [2] | Ki [2] | IC50 (Calcitonin receptor)

CC[C@@H](CO)NC(=O)[C@@H]1C=C2c3cccc4[nH]cc(c34)C[C@H]2N(C)C1 [METHYLERGONOVINE]
Not Active: IC50 (Thromboxane-A synthase) | IC50 (Cannabinoid receptor 1) | IC50 (Caspase-1) | IC50 (Cytochrome P450 2E1) | Ki (Cytochrome P450 2E1) | IC50 (Cytochrome P450 3A4) | Ki (Cytochrome P450 3A4) | IC50 [1] | IC50 [2] | Ki [2] | IC50 (Calcitonin receptor)

SODIUM NITROPRUSSIDE
Not Active: IC50 (Thromboxane-A synthase) | Ki (Thromboxane-A synthase) | IC50 (Cannabinoid receptor 1) | Ki (Cannabinoid receptor 1) | IC50 (Caspase-1) | Ki (Caspase-1) | IC50 (Cytochrome P450 2E1) | Ki (Cytochrome P450 2E1) | IC50 (Cytochrome P450 3A4) | Ki (Cytochrome P450 3A4) | IC50 [1] | Ki [1] | IC50 [2] | Ki [2] | IC50 (Calcitonin receptor) | Ki (Calcitonin receptor)

Cc1oncc1C(=O)Nc1ccc(C(F)(F)F)cc1 [LEFLUNOMIDE]
Not Active: IC50 (Thromboxane-A synthase) | IC50 (Cannabinoid receptor 1) | IC50 (Caspase-1) | IC50 (Cytochrome P450 2E1) | Ki (Cytochrome P450 2E1) | IC50 (Cytochrome P450 3A4) | Ki (Cytochrome P450 3A4) | IC50 [1] | IC50 [2] | Ki [2] | IC50 (Calcitonin receptor)

N#CC(C#N)=Cc1ccc(O)c(O)c1 [TYRPHOSTIN 23]
Not Active: IC50 (Thromboxane-A synthase) | IC50 (Cannabinoid receptor 1) | IC50 (Caspase-1) | IC50 (Cytochrome P450 2E1) | Ki (Cytochrome P450 2E1) | IC50 (Cytochrome P450 3A4) | Ki (Cytochrome P450 3A4) | IC50 [1] | IC50 [2] | Ki [2] | IC50 (Calcitonin receptor)
